Test results published in patent publication US20250304545A1, “WATER-SOLUBLE HETEROCYCLYL POLYMETHINE CHROMOPHORES” (The Regents of the University of California, priority 2022, published 2025).

Assays:
[1] = Photophysical properties of exemplary compounds in DCM solution; assay type: physicochemical; conditions: for λmax (first value of the cell): first of two wavelengths; for λmax (second value of the cell): second of two wavelengths
[2] = reference value; cited from earlier work
[3] = in vivo; cited from earlier work
[4] = Systemic vasculature SWIR imaging with SulfoChrom7, compared with ICG; assay type: in vivo, mice; conditions: for distribution within 30 min: co-injection of SulfoChrom7 and ICG, 10 nmol each i.v.
Experimental: (§1) Animal experiments were conducted in conformity with guidelines from the University of California, Los Angeles with protocols approved by the Animal Research Committee (protocol number ARC-2018-047). Non-invasive whole mouse imaging was performed on athymic nude female mice (5-15 weeks old), purchased from Charles River Laboratories. Mice were anesthetized with inhaled 2-4% isoflurane. Tail vein injections were performed with a catheter assembled from a 29-gauge needle connected through plastic tubing to a syringe prefilled with isotonic saline solution. The bevel of the needle was then inserted into the tail vein and secured using tissue adhesive. The plastic tubing was then connected to a syringe (30-gauge needle) prefilled with the compound of interest. All solutions were filtered through a 0.22 μm syringe filter prior to i.v. injection.
(§2) Imaging instrument was installed according to published procedure, using an Allied Vision Goldeye G-032 Cool TEC2 camera with illumination from LU0975DLU350-S30AN03 (35 W, 975 nm laser) and LU0785D250-U70AN (25 W, 785 nm laser) Lumics laser units to record images at 14-bit depth. Illumination was adjusted to 100 mW/cm^2 for 975 nm and 50 mW/cm^2 for 785 mm. Excitation was provided at 975 nm for Sulfo-, Ammon-, Zwit- and PhosphoChrom7, and at 785 nm for ICG. Fluorescence images were recorded with an 1100 nm long-pass filter unless otherwise noted. Dual-channel imaging (SulfoChrom7/ICG, or fluorescent imaging/bright field imaging) was performed with pulsed excitation that matches the detection window of the camera, or persistent ambient fluorescent lighting for bright field images to be subtracted as background in the fluorescence channel.
Images were processed using the Fiji distribution of ImageJ. All images were background subtracted to correct for non-linearities in the detector and/or excitation. […] Videos were saved as raw avi and cropped, frame-rate adjusted and compressed with FFmpeg. For dual-channel imaging, emission of the SulfoChrom7 and AmmonChrom7 in 785 nm channel was estimated to be 9.0% intensity of their 975 nm image as derived from the capillary experiment, and subtracted from the 785 nm channel.

SK-OV-3 tumors = assay: Fluorescence tracking of growth of SK-OV-3 tumor xenografts; assay type: in vivo, mice; conditions: 39 days after xenograft, 4 h after i.v. OTL-38
Experimental: A375 or SK-OV-3 cells were grown to confluency and incubated with full media supplemented with 50 μM of AmmonChrom7 for 12 h. Cells were then incubated with full media for 6 h, followed by digestion with trypsin-EDTA. The cell pellet was further washed with PBS (×3). For A375 cells, stained or unstained cells were suspended in 1:1 PBS and Matrigel; 100 μL of cell suspension (3.3 million cells) were injected to each site. Tumor 2D-projected sizes A were monitored by caliper measurement of long diameter a and short diameter b of the tumors and estimated by the following equation:
For SK-OV-3 cells, cells were suspended in 1:1 PBS and Matrigel; 100 μL of cell suspension (2.5 million cells) was injected to each site. […]
as §2, with “Illumination was adjusted to 100 mW/cm^2 for 975 nm and 50 mW/cm^2 for 785 mm. Excitation was provided at 975 nm for Sulfo-, Ammon-, Zwit- and PhosphoChrom7, and at 785 nm for ICG.” left out

[5] = Aggregation / monomeric dispersion by absorption spectra in water, MeOH/H2O and serum; assay type: physicochemical; conditions: for aggregation state: in water
From the text: (§3) Absorption spectra were collected on a JASCO V-770 UV-visible/NIR spectrophotometer after blanking with the appropriate solvent. Photoluminescence spectra were obtained on a Horiba Instruments PTI QuantaMaster Series fluorometer. Fetal bovine serum (FBS) or bovine serum were purchased from Gibco. Quartz cuvettes (10 mm×10 mm) were used for absorption and photoluminescence measurements unless otherwise noted. All spectra were obtained at ambient temperature. Fluorescence quantum yield was measured with 830 nm excitation using Flav7 as a reference (ΦF=0.61%).

[6] = Bone imaging in mice with PhosphoChrom7; assay type: in vivo
Experimental: as §1, §2
Images were processed using the Fiji distribution of ImageJ. All images were background subtracted to correct for non-linearities in the detector and/or excitation. […] Videos were saved as raw avi and cropped, frame-rate adjusted and compressed with FFmpeg. […]

[7] = Hydroxyapatite binding assay; conditions: 50 μM dye in bovine serum, sequential washes
Experimental: Hydroxyapatite powder was purchased from Acros Organics. To a suspension of 10 mg of hydroxyapatite in 100 μL of bovine serum was added 50 μM PhosphoChrom7 and the mixture was placed on a revolver for 30 min for initial binding, followed by centrifugation to remove supernatant. For washing, the pellet was resuspended in 100 μL of bovine serum by vortexing and placed on a revolver for 30 min followed by centrifugation to remove supernatant. The pellet was finally resuspended in 100 μL of bovine serum for imaging under the SWIR camera. For quantification, each centrifuge tube containing the suspension was recorded at the center of the illumination/viewing field to calculate mean fluorescence intensity at the bottom area of the tube.

HEK293 cells [8] = assay: MTT toxicity assay; assay type: cell-based; conditions: low concentrations
Experimental: HEK293 cells were split into three cultures as replicates. For each replicate, HEK293 cells were passed onto flat-bottomed 96-well plate to 40-50% confluency and left 6 h for adhesion. Different concentrations of compounds were added to the medium (1:40 dilution from aqueous stock solution) in quadruplicate and incubated for 18 h. After incubation, cells were treated with 100 μL of full media containing 0.5 mg/mL MTT for 2 h, followed by addition of 100 μL of aqueous solution containing 10% SDS and 1:1000 HCl. After 3-4 h incubation, cell viability was determined by measuring the absorbance at 490 nm using a plate reader.

[9] = Photophysical characterization of Chrom7 dyes (absorption, emission, quantum yield); assay type: physicochemical
From the text: as §3

[10] = Biodistribution of water soluble SWIR fluorophores after i.v. injection; assay type: in vivo, mice; conditions: 20 nmol into tail vein
Experimental: as §1, with “The plastic tubing was then connected to a syringe (30-gauge needle) prefilled with the compound of interest. All solutions were filtered through a 0.22 μm syringe filter prior to i.v. injection.” left out
as §2, with “Illumination was adjusted to 100 mW/cm^2 for 975 nm and 50 mW/cm^2 for 785 mm. Excitation was provided at 975 nm for Sulfo-, Ammon-, Zwit- and PhosphoChrom7, and at 785 nm for ICG.” left out, “channel. […]” for “channel.”

[11] = Brightness comparison by SWIR imaging of dyes in FBS in capillaries; assay type: physicochemical
Experimental: as §2

HEK293 cells [12] = assay: Uptake and retention of dyes in cells (absorbance of cell lysates); assay type: cell-based; conditions: 50 μM dye
Experimental: HEK293, SK-OV-3 or A375 cells were split into three cultures as replicates. For each replicate, cells were passed onto 12-well or 24-well plates and grown until ca. 80% confluency. Each well was incubated with 50 μM of AmmonChrom7 for 6 h, and the cells were washed with PBS and incubated in MEM medium supplemented with 1% FBS. At given time points, the cell media were removed and cells were lysed with lysis buffer (150 μL, containing 1% Triton X-100, 0.1% w/v SDS and 0.1% w/v sodium deoxycholate) and diluted with bovine serum (300 μL). The cell lysate was collected and frozen at −20° C. until analysis. To quantify dye content, maximum absorption was used to represent the dye concentration. Scattering was estimated and subtracted with absorption at 1050-1100 nm, using the following equation for fitting: […]

Stability assay in FBS = assay type: in vitro ADME; conditions: over 2 days at 37° C. in FBS, 1 μM dye
Experimental: Dyes were diluted to 1 μM in 1 mL of FBS containing 0.02% w/v NaN3 and placed in disposable cuvettes. The cuvettes were sealed with parafilm and placed in 37° C. incubator until given time points. Absorption spectra were taken using the maximum absorption to represent the dye concentration. Each condition was performed in triplicate.

Compound: Cc1cc(C)cc(C2=C(/C=C/C3=CC(c4ccccc4)=[SH]c4cc(N(C)C)ccc43)CCC/C2=C\C=C2/C=C(c3ccccc3)Sc3cc(N(C)C)ccc32)c1 [DiMePh SFlav7]
- ϕF [1]: 0.11 ± 0.01%
- λmax (first value of the cell) [1]: 1079 nm
- λmax (second value of the cell) [1]: 1107 nm

Compound: CN(C)c1ccc2c(c1)SC(c1ccccc1)=C/C2=C\C=C1/CCCC(/C=C/c2cc(-c3ccccc3)[s+]c3cc(N(C)C)ccc23)=C1c1cc(C(C)(C)C)cc(C(C)(C)C)c1 [DitBuPh SFlav7]
- ϕF [1]: 0.11 ± 0.02%
- λmax (first value of the cell) [1]: 1079 nm
- λmax (second value of the cell) [1]: 1107 nm

Compound: CN(C)c1ccc2c(c1)OC(c1ccccc1)=C/C2=C\C=C1/CCCC(/C=C/c2cc(-c3ccccc3)[o+]c3cc(N(C)C)ccc23)=C1Cl [Flav7]
- ΦF of the reference for fluorescence quantum yield [2]: 0.61%

Compound: CC1(C)C(/C=C/C=C/C=C/C=C2\N(CCCCS(=O)(=O)O)c3ccc4ccccc4c3C2(C)C)=[N+](CCCCS(=O)(=O)[O-])c2ccc3ccccc3c21 [ICG, indocyanine green, reference compound]
- time of hepatobiliary clearance [3]: ≤ 6 h
- distribution within 30 min [4]: most ICG accumulated in the liver with secretion into the intestine, leaving negligible signal in the mouse body

Compound: CC1(C)C(/C=C/C2=C(Oc3ccc(C[C@H](NC(=O)c4ccc(NCc5cnc6nc(N)[nH]c(=O)c6n5)cc4)C(=O)[O-])cc3)C(=C/C=C3\N(CCCCS(=O)(=O)[O-])c4ccc(S(=O)(=O)[O-])cc4C3(C)C)/CCC2)=[N+](CCCCS(=O)(=O)[O-])c2ccc(S(=O)(=O)[O-])cc21.[H+].[H+].[H+].[H+] [OTL-38]
- specificity of tumor staining ex vivo (SK-OV-3 tumors): much non-specific accumulation

Compound: Cc1ccccc1C1=C(C=Cc2cc(C(C)(C)C)[o+]c3cc(N(Cc4cn(CCCP(=O)(O)O)nn4)Cc4cn(CCCP(=O)(O)O)nn4)ccc23)CCCC1=CC=C1C=C(C(C)(C)C)Oc2cc(N(Cc3cn(CCCP(=O)(O)O)nn3)Cc3cn(CCCP(=O)(O)O)nn3)ccc21 [PhosphoChrom7]
- aggregation peak ([5]; in FBS): 760 nm
- solubility ([5]; in FBS): lower than the Sulfo-, Ammon-, or ZwitChrom7
- organ distribution on dissection ([6]; 54 h after i.v. injection): the liver is the major target of the dye
- time at which bone structures begin to feature ([6]; after i.v. injection): 8 h
- clearance ([6]; compared to previous hydrophilic dyes): slightly faster clearance
- binding towards hydroxyapatite [7]: strong binding affinity
- toxicity (HEK293 cells [8]): mild

Compound: C#CCN(CC#C)c1ccc2c(c1)OC(C(C)(C)C)=C/C2=C\C=C1/CCCC(/C=C/c2cc(C(C)(C)C)[o+]c3cc(N(CC#C)CC#C)ccc23)=C1c1ccccc1C [Propargyl-Chrom7]
- εmax ([9]; in MeOH): 14 ± 1 10^4 M^−1cm^−1
- λmax ([9]; in MeOH): 928 nm

Compound: Cc1ccccc1C1=C(C=Cc2cc(C(C)(C)C)[o+]c3cc(N(Cc4cn(CCCS(=O)(=O)[O-])nn4)Cc4cn(CCCS(=O)(=O)[O-])nn4)ccc23)CCCC1=CC=C1C=C(C(C)(C)C)Oc2cc(N(Cc3cn(CCCS(=O)(=O)[O-])nn3)Cc3cn(CCCS(=O)(=O)[O-])nn3)ccc21.[Na+].[Na+].[Na+] [SulfoChrom7]
- distribution after 3 h [10]: diffuse signal through the mouse body, but still with substantial liver accumulation
- εmax ([9]; in FBS): 9.5 10^4 M^−1cm^−1
- λmax ([9]; in FBS): 963 nm
- φF ([9]; in FBS): 0.0056 ± 0.0003
- εmax ([9]; in MeOH): 16.5 ± 0.2 10^4 M^−1cm^−1
- λmax ([9]; in MeOH): 938 nm
- φF ([9]; in MeOH): 0.0106 ± 0.0002
- aggregation state [5]: discernible monomer absorption
- emission in 785 nm channel as intensity of the 975 nm image ([11]; derived from the capillary experiment): 9.0%
- SWIR brightness compared with ICG / among the dyes ([11]; in FBS, 975 nm excitation (ICG 785 nm)): brightest of the fluorophores
- cellular uptake (absorbance of cell lysates) (HEK293 cells [12]): minimal
- fraction of dye left (Stability assay in FBS): around ½
- brightness ratio over ICG in veins, maximum over time ([4]; co-injection 10 nmol each, 1300 nm LP filter): 7-8 fold
- distribution within 30 min [4]: still reflected the superficial vasculature map while also displaying liver accumulation
- amount of dye that enables video-rate imaging of liver and vasculature ([4]; tail vein, 33 fps, 1100 nm LP filter): 0.05 nmol

Compound: Cc1ccccc1C1=C(C=Cc2cc(C(C)(C)C)[o+]c3cc(N(Cc4cn(CCC[N+](C)(C)CCCS(=O)(=O)[O-])nn4)Cc4cn(CCC[N+](C)(C)CCCS(=O)(=O)[O-])nn4)ccc23)CCCC1=CC=C1C=C(C(C)(C)C)Oc2cc(N(Cc3cn(CCC[N+](C)(C)CCCS(=O)(=O)[O-])nn3)Cc3cn(CCC[N+](C)(C)CCCS(=O)(=O)[O-])nn3)ccc21.[Cl-] [ZwitChrom7]
- distribution after 3 h [10]: diffuse signal through the mouse body, but still with substantial liver accumulation
- quantum yield ([9]; in FBS): 0.32%
- εmax ([9]; in FBS): 11.5 10^4 M^−1cm^−1
- λmax ([9]; in FBS): 960 nm
- φF ([9]; in FBS): 0.0032 ± 0.0003
- εmax ([9]; in MeOH): 16.4 ± 0.4 10^4 M^−1cm^−1
- λmax ([9]; in MeOH): 940 nm
- φF ([9]; in MeOH): 0.0101 ± 0.0004
- aggregation state [5]: primarily aggregated
- cellular uptake (absorbance of cell lysates) (HEK293 cells [12]): minimal
- fraction of dye left (Stability assay in FBS): 1/10
